Assay results reported in patent US20220312815A1, “NATURAL FOOD ANTIOXIDANT AND METHOD FOR PREPARING THE SAME” (Lanzhou Universty, priority 2019, published 2022).
Marks after values point to notes of the source that are not given here.

Experiments:
[1] = Antioxidative activity of DPPH (DPPH free radical scavenging); assay type: biochemical; conditions: absorbance at 519 nm after 30 minutes in dark at room temperature; mean of 3 repeats
Experimental: Antioxidative activity of DPPH: DPPH belonged to a synthetic stable free radical, which has characteristic absorption in a visible light region. A method for measuring DPPH was simple and fast and had good reproducibility. Flavonoid and a sample of flavonoid and polysaccharide mixed that was prepared in Embodiment 1 were all prepared with 70% ethyl alcohol. The polysaccharide sample, positive control vitamin C (Vc) and vitamin E (Ve) were prepared with distilled water. 1.280 mg/mL stock solution was prepared with each substance to be tested and diluted for 7 concentration gradients for later use. 75 μL of a solution in each concentration to be tested was precisely added to a 96-ferment plate, and then added with 150 μL of 0.1 m MDPPH 70% ethyl alcohol solution. A blank control was set for each reaction hole of each concentration. The blank control was 75 μL of the solution to be tested and 150 μL of 70% ethyl alcohol. The total volume of reaction was 225 μL. The solution was shook well, and kept standing in dark at room temperature for 30 minutes. […] A decrease in absorbency indicated an increase in free radical scavenging activity. Each sample was repeated 3 times for each concentration. Scavenging rate=[A0-(A1-A2)]/A0 A0 was a light absorption value of the DPPH solution plus a solution to be tested at a concentration of zero. […]

[2] = Antioxidative activity of superoxide anions (PMS-NADH-NBT system method); assay type: biochemical; conditions: absorbance at 560 nm after 5 min, pH7.4 phosphate buffer
From the text: The determination of antioxidative activity of superoxide anions: O2-• was a free radicals with a longer life in a body. In free radical chain reaction. O2-• acted as an initiator to promote the generation of other free radicals, causing further harm to the body, which was closely related to many diseases. Therefore, the ability of the sample to remove O2-• was usually used as an important indicator of the activity of an antioxidative substance. Flavonoid and a sample of flavonoid and polysaccharide mixed that was prepared in Embodiment 1 were all prepared with 70% ethyl alcohol. A polysaccharide sample, positive control vitamin C (Vc) and vitamin E (Ve) were prepared with distilled water. 1.280 mg/mL stock solution was prepared with each substance to be tested and then diluted for 7 concentration gradients for later use. A PMS-NADH-NBT system method was used to determine the activity of scavenging superoxide anions (O2-•). […] When being added to the PMS-NADH-NBT system, an antioxidative substance inhibited the reaction of O2-• with NBT. By measuring absorbency, the ability to scavenge free radicals of antioxidant could be calculated. […] A light absorption value of the solution was measured at 560 nm after 5 min. […]

| SMILES | IC50 of DPPH [1] | IC50 of O2-· [2] |
| --- | --- | --- |
| O=C1O[C@H]([C@@H](O)CO)C(O)=C1O [Vc, vitamin C] | 2.95 ± 0.39^a μg/mL | 208.83 ± 10.41^d μg/mL |
| Cc1c(C)c2c(c(C)c1O)CC[C@@](C)(CCC[C@H](C)CCC[C@H](C)CCCC(C)C)O2 [Ve, vitamin E] | 5.33 ± 0.45^a μg/mL | 353.33 ± 4.16^e μg/mL |
